Laboratory results published in patent US20250122234A1, “NOVEL CRYSTALLINE FORM OF [(2R,3S,4R,5R)-3,4-DIHYDROXY-5-[4-(HYDROXYAMINO)-2- OXOPYRIMIDIN-1-YL]OXOLAN-2-YL]METHYL-2-METHYLPROPANOATE” (priority 2021, published 2025).

Legend:
[1] = tested on: influenza A viruses; design: species or system mice; details: mouse, in vivo, po
[2] = hygroscopicity, weight increase on exposure to water vapor in climatic chamber; assay type: physicochemical; details: 24 hours, temperature (25±1)°C, relative humidity (80±2)%, 200 mg sample
[3] = study of physicochemical and technological properties

| SMILES | clinical symptoms of the disease [1] | titer of the virus in the nasal wash and fever [1] | X (%), increase in the weight of the test substance [2] [%] | virus titer in the nasal wash, less than in groups 2 and 3 (crystal forms I, II) [1] | solubility [3] | stability [3] |
| --- | --- | --- | --- | --- | --- | --- |
| CC(C)C(=O)OC[C@H]1O[C@@H](n2ccc(NO)nc2=O)[C@H](O)[C@@H]1O [Polymorph I, [(2R,3S,4R,5R)-3,4-dihydroxy-5-[4-(hydroxyamino)-2-oxopyrimidin-1-yl]oxolan-2-yl]methyl-2-methylpropanoate] | some animals showed a decrease in body weight and shortness of breath | a decrease in the titer of the virus in the nasal wash and a decrease in fever | 4.1 |  |  |  |
| CC(C)C(=O)OC[C@H]1O[C@@H](n2ccc(NO)nc2=O)[C@H](O)[C@@H]1O [Polymorph II, [(2R,3S,4R,5R)-3,4-dihydroxy-5-[4-(hydroxyamino)-2-oxopyrimidin-1-yl]oxolan-2-yl]methyl-2-methylpropanoate] | some animals showed a decrease in body weight and shortness of breath | a decrease in the titer of the virus in the nasal wash and a decrease in fever | 5.2 |  |  |  |
| CC(C)C(=O)OC[C@H]1O[C@@H](n2ccc(NO)nc2=O)[C@H](O)[C@@H]1O [[(2R,3S,4R,5R)-3,4-dihydroxy-5-[4-(hydroxyamino)-2-oxopyrimidin-1-yl]oxolan-2-yl]methyl-2-methylpropanoate] | clinical symptoms of the disease were practically not recorded | a decrease in the titer of the virus in the nasal wash and a decrease in fever | 0.5 | approximately 20% | higher solubility | improving the stability |
